Results published in ChEMBL document CHEMBL5518180, “Design, synthesis, and biological evaluation of harmine derivatives as topoisomerase I inhibitors for cancer treatment” (Eur J Med Chem, 2024).
Active and inactive are the calls of the source. The rule behind the calls is not given here.

Experiments:
MCF7 [1] = experiment: Antiproliferative activity against human MCF7 cells assessed as inhibition of cell growth incubated for 48 hrs by MTT assay; format: functional, cell-based; settings: MCF7, 48 h
MDA-MB-231 = experiment: Antiproliferative activity against human MDA-MB-231 cells assessed as inhibition of cell growth incubated for 48 hrs by MTT assay; format: functional, cell-based; settings: MDA-MB-231, 48 h
HepG2 = experiment: Antiproliferative activity against human HepG2 cells assessed as inhibition of cell growth incubated for 48 hrs by MTT assay; format: functional, cell-based; settings: HepG2, 48 h
HT-29 = experiment: Antiproliferative activity against human HT-29 cells assessed as inhibition of cell growth incubated for 48 hrs by MTT assay; format: functional, cell-based; settings: HT-29, 48 h
PC-3 = experiment: Antiproliferative activity against human PC-3 cells assessed as inhibition of cell growth incubated for 48 hrs by MTT assay; format: functional, cell-based; settings: PC-3, 48 h
MCF7 [2] = experiment: Antimigratory activity against human MCF7 cells assessed as wound healing rate at 0.125 uM incubated for 24 hrs by inverted fluorescence microscopic analysis (reference value: 42.5 %); format: functional
MCF7 [3] = experiment: Antimigratory activity against human MCF7 cells assessed as decrease in MMP-2 expression incubated for 24 hrs by Western blotting analysis; format: functional, cell-based; settings: dose 125-500 nM
MCF7 [4] = experiment: Induction of apoptosis in human MCF7 cells assessed as viable cells at 0.1 uM incubated for 24 hrs by Annexin V-FITC/Propidium Iodide staining based flow cytometry analysis (reference value: 91.8 %); format: functional; settings: read-out: Activity
MCF7 [5] = experiment: Induction of apoptosis in human MCF7 cells assessed as late apoptotic cells at 0.5 uM incubated for 24 hrs by Annexin V-FITC/Propidium Iodide staining based flow cytometry analysis (reference value: 5.58 %); format: functional
MCF7 [6] = experiment: Induction of apoptosis in human MCF7 cells assessed as early apoptotic cells at 2 uM incubated for 24 hrs by Annexin V-FITC/Propidium Iodide staining based flow cytometry analysis (reference value: 2.54 %); format: functional
MCF7 [7] = experiment: Induction of apoptosis in human MCF7 cells assessed as late apoptotic cells at 2 uM incubated for 24 hrs by Annexin V-FITC/Propidium Iodide staining based flow cytometry analysis (reference value: 5.58 %); format: functional
MCF7 [8] = experiment: Induction of apoptosis in human MCF7 cells assessed as necrotic cells at 2 uM incubated for 24 hrs by Annexin V-FITC/Propidium Iodide staining based flow cytometry analysis (reference value: 0.082 %); format: functional
MCF7 [9] = experiment: Induction of apoptosis in human MCF7 cells assessed as increase in Bax protein expression incubated for 24 hrs by Western blotting analysis; format: functional, cell-based; settings: dose 0.1-2 µM
MCF7 [10] = experiment: Induction of apoptosis in human MCF7 cells assessed as increase in phosphorylated Bim protein expression incubated for 24 hrs by Western blotting analysis; format: functional, cell-based; settings: dose 0.1-2 µM
MCF7 [11] = experiment: Induction of DNA double-strand breaks in human MCF7 cells assessed as increase in gamma-H2AX protein expression incubated for 48 hrs by Western blotting analysis; format: functional, cell-based; settings: dose 0.25-1 µM
MCF7 [12] = experiment: Induction of DNA damage in human MCF7 cells at 1 uM pre-incubated for 24 hrs by Comet assay; format: functional, cell-based
4T1 [13] = experiment: Antitumor activity against mouse 4T1 cells transplanted in BALB/c mouse assessed as tumor growth inhibition rate at 5 mg/kg, ip administered for 14 days relative to control; format: functional; settings: 4T1, 336 h, time 14 day, read-out: TGI
4T1 [14] = experiment: Antitumor activity against mouse 4T1 cells transplanted in BALB/c mouse assessed as inhibition of tumor volume at 10 mg/kg, ip administered for 14 days; format: functional, organism-based; settings: time 14.0 day
4T1 [15] = experiment: Antitumor activity against mouse 4T1 cells transplanted in BALB/c mouse assessed as tumor growth inhibition rate at 10 mg/kg, ip administered for 14 days relative to control; format: functional; parameters: scale not given: the % may be the effect or the level left; settings: time 14 day
[16] = Toxicity in BALB/c mouse transplanted with […] cells assessed as change in body weight at 5 to 20 mg/kg, ip administered for 14 days; format: organism-based; settings: in vivo, 336 h, dose 5-20 mg/kg, time 14 day
[17] = Toxicity in BALB/c mouse transplanted with […] cells assessed as heart damage at 5 to 20 mg/kg, ip administered for 14 days by hematoxylin and eosin staining based analysis; format: organism-based; settings: in vivo, 336 h, dose 5-20 mg/kg, time 14 day
[18] = Toxicity in BALB/c mouse transplanted with […] cells assessed as liver damage at 5 to 20 mg/kg, ip administered for 14 days by hematoxylin and eosin staining based analysis; format: organism-based; settings: in vivo, 336 h, dose 5-20 mg/kg, time 14 day
[19] = Toxicity in BALB/c mouse transplanted with […] cells assessed as kidney damage at 5 to 20 mg/kg, ip administered for 14 days by hematoxylin and eosin staining based analysis; format: organism-based; settings: in vivo, 336 h, dose 5-20 mg/kg, time 14 day
[20] = Toxicity in BALB/c mouse transplanted with […] cells assessed as change in serum aspartate aminotransferase level at 5 to 20 mg/kg, ip administered for 14 days by biochemical analysis; format: organism-based; settings: in vivo, 336 h, dose 5-20 mg/kg, time 14 day
[21] = Toxicity in BALB/c mouse transplanted with […] cells assessed as change in creatine kinase level at 5 to 20 mg/kg, ip administered for 14 days by biochemical analysis; format: organism-based; settings: in vivo, 336 h, dose 5-20 mg/kg, time 14 day

IC50 (MCF7 [1]): 0.34 µM
IC50 (MDA-MB-231): 0.98 µM
IC50 (HepG2): 1.61 µM
IC50 (HT-29): 0.57 µM
IC50 (PC-3): 1.17 µM
Compound: O=C(/C=C/c1ccc(Cl)c([N+](=O)[O-])c1)c1nccc2c1[nH]c1ccccc12
Activity (MCF7 [2]): 15.3%
Activity (MCF7 [3]): Dose-Dependent Effect
viability at 0.1 µM (MCF7 [4]): 85.3%
Activity (MCF7 [5]): 8.65%
Activity (MCF7 [6]): 7.59%
Activity (MCF7 [7]): 30.8%
Activity (MCF7 [8]): 0.93%
Activity (MCF7 [9]): Dose-Dependent Effect
Activity (MCF7 [10]): Dose-Dependent Effect
Activity (MCF7 [11]): Dose-Dependent Effect
Activity (MCF7 [12]): inactive
inhibition in vivo at 5 mg/kg (4T1 [13]): 21.7%
Activity (4T1 [14]): Active
Activity (4T1 [15]): 43.19%
Activity [16]: Non-Toxic
Activity [17]: Non-Toxic
Activity [18]: Non-Toxic
Activity [19]: Non-Toxic
Activity [20]: Non-Toxic
Activity [21]: Non-Toxic
